SMILES strings stand for the structures. Where two headings read alike, the source gives them in different places.

Experiment [1] concerns pigs. The experiment is described as follows: Post mortem pH and temperature in M. longissimus dorsi, Example 2. The experiment is classed as in vivo, pig. The protocol: The pigs were slaughtered at a commercial slaughter house in Sweden after a resting time of 5 h. At 45 minutes post mortem, pH (Knick portamess 751) and temperature (digital thermometer, Weber) were measured in the M. longissiumus dorsi at the level of the 10th rib. At 48 h post mortem, the entire loins were dissected from the carcasses and transported to the University of Copenhagen for further measurements. Ultimate pH was measured, as well as colour by Minolta L*a*b*. Dry matter content was determined by drying muscle samples at 105° C. for 24 h. Slices of 3 cm thickness were cut, measured and vacuum packed before being stored for a further 7 days at 2° C. At the end of the storage period samples were heated to an internal temperature of 75° C. After being cooled down, samples were stored cold at 2° C. until they were cut into slabs of 1 cm×1 cm×2.5 cm size for shear force measurement. For each animal, 8 specimens were measured and the mean maximum load was used for further analysis.

The subject of experiment [2] is slaughter pigs. Description: Instrumental meat colour (CIE L*a*b*), Example 1. The experiment is classed as in vivo, pig. Particulars: LS mean ± SEM. An excerpt:
(§1) Twenty-one slaughter pigs ([Yorkshire×Swedish Landrace]×Hampshire) were raised on a commercial diet. Pigs were randomly assigned to one of three groups (n=7). The groups represented three feeding strategies, namely a Control group which received a standardized diet comprising 0.27% total methionine, and both a DLM and HMTBA group, receiving the same diet as the Control group throughout the feeding period, apart from the fact that they were fed a higher level of methionine (1.1% total methionine) during a seven day finishing period immediately prior to slaughter. The supplements were given in two forms, either as D L-methionine (DLM) or DL-2-hydroxy-4-methylthiobutanoic acid (HMTBA).
(§2) Pork chops were cut perpendicular to the long axis of each LD muscle. Six 3 cm thick pork chops was sliced from each LD. Three were vacuum packed and three were packed in a high-oxygen modified atmosphere. The chops were placed in plastic trays (M71-43A white/PS; 195×144×43 mm in dimension; Frch Plast, Denmark) and placed in vacuum bags (EM-628862; O2 transmission rate=40-50 cm^3/m^2/24 h/bar, CO2 transmission rate=150 cm^3/m^2/24 h/bar, water-vapour transmission rate=2.6 g/m^2/24 h; LogiCon Nordic A/S, Denmark). The ambient air was removed from all vacuum bags using a vacuum machine (type, manufacturer, country). The bags intended for […] were first filled with a gas mixture (80% oxygen/20% carbon dioxide) before being sealed completely, whereas the bags intended for MAP were only partially sealed. […] (until 9 days post mortem). The gas composition was checked (CheckMate 9900, PBI Dansensor, Denmark) before packaging and again prior to opening, at the end of the simulated display period in order to check for leakage. The oxygen-enriched environment was well maintained (83.4%) throughout the display period for all MA packages.
Instrumental meat colour was measured with a Minolta Chroma Meter (CR-300; D65 and 2° observer angle, 8 mm diameter measuring area; Minolta, Japan). Before packaging, as described previously, colour recordings of the pork chops was carried out. At the end of the display period, the pork chops were allowed to bloom for at least 30 min at 4±2° C. once they had been removed from the vacuum bags. Colour measurements followed the CIE colour convention, where the three fundamental outputs are L*, a* and b*. L* is lightness on a scale of 0 (all light absorbed; black) to 100 (all light reflected; white); a* spans from +60 (red) to −60 (green) and b* spans from +60 (yellow) to −60 (blue). The saturation index, also known as chroma, was calculated as the square root of a*^2+b*^2 (MacDougall, 1977). Three recordings were made on each pork chop, and the mean value was used for statistical analysis.

The subject of experiment [3] is slaughter pigs. The experiment is described as follows: Storage loss of pork chops after display period. The experiment is classed as in vivo, pig. Particulars: 7 days at 2° C., 1.1% total methionine for 7 days before slaughter, LS mean ± SEM.
From the text: as §1
(§3) Pigs were slaughtered at a commercial slaughter house in Sweden after a resting time of 5 hours. At 45 minutes post mortem, pH (Knick portamess 751 pH-meter with an Ingold LOT glass electrode, Tech Instrumentering ApS, Denmark) and temperature (digital thermometer, Weber, Stephen Nordic, Denmark) were measured in the m. Longissimus dorsi (LD) at the level of the 10th rib. At 48 hours post mortem, the entire back was dissected from the carcass and transported under controlled conditions to the University of Copenhagen for further measurements.
as §2
(§4) Storage loss was determined as the weight loss percentage at the end of the display period (9 days post mortem) relative to the weight at the day of packaging (two days post mortem). The cooking loss was determined as the weight loss percentage between the pork chops before and after cooking. The results are given as the mean of the three pork chops in each meat pack.

For experiment [4], the system named is slaughter weight pigs. How it is done: Pigs ([Yorkshire×Swedish Landrace]×Hampshire)(n=10×3 were fed twice daily 2% of their body weight with the respective diets (either low or high methionine diets), water ad libitum.
Two square stimulating electrodes were placed next to one another (not touching) and infront of the recording electrodes, after which the muscle was stimulated at 10, 20, 60, 150 and 200 Hz and the subsequent responses were recorded. Two leads were placed on either side of the abdomen at a position of the last rib to form a “triangle” with the reference electrode and serve to record both respiratory movements as well as sECG signal.
Using electrodes placed either side of the abdomen at the position of the last rib, and a reference electrode placed on the ear, it was possible to create an Einthoven triangle and to record both an ECG (plus heart rate) and respiration rate through diaphragm movements. The recorded signal was assessed in terms of rate and the Q-T interval (time taken for the ventricles to depolarize and repolarize) using Chart analysis software (AD Instruments, Chalgrove, Oxfordshire, UK).
In addition to the sEMG recordings, we were able to obtain non-invasive measurements of the rate of respiration (breaths/min) and the heart rate (bpm) as well as an analysis of the recorded ECG in terms of the time taken for ventricle depolarization and repolarization, the so-called Q-T interval.
Table 1 presents the effects of 1 weeks dietary supplementation with DLM on the respiration and heart rate of 90-100 kg slaughter weight pigs, as well as the Q-T Interval. Values are the mean of a number of pigs, where “n” represents the number of animals per group. (ns) represents a difference between means that was not quite significant.

In experiment [5] the test system is slaughter pigs. The experiment is described as follows: Cooking loss of pork chops. The experiment is classed as in vivo, pig. Particulars: 7 days at 2° C., LS mean ± SEM.
From the text: as §1, §3, §2, §4

The mark [6] stands for this setting: Slaughter house, 45 min post mortem.
The mark [7] stands for this setting: Initial (2 days post mortem), square root of a*^2+b*^2.
Where [8] appears, read: MAP 80% O2/20% CO2 (9 days post mortem).
Setting [9] is: post (n = 6), after 1 weeks dietary supplementation.
Where [10] appears, read: pre (n = 6), before supplementation.

Regarding `CSCCC(N)C(=O)O` (racemic) [DLM, DL-methionine], the pH in experiment [1] (Laboratory, 2 days post mortem) is reported as 5.50. In experiment [1] (setting [6]), this compound yielded a Temperature of 39 °C and a pH of 6.10. Moreover, in experiment [2] (Initial (2 days post mortem)), the “Light reflection (L*)” value was 55.75 ± 1.25 ^B; the “Redness (a*)” value is on record as 6.69 ± 0.58 ^C, D; the “Yellowness (b*)” value is listed as 2.92 ± 0.46 ^C. Also, the Saturation index in experiment [2] (setting [7]) was 7.33 ± 0.67 ^E. For the same compound, in experiment [2] (setting [8]), the “Redness (a*)” value was 7.83 ± 0.59 ^A, B, C, D; the Saturation index is reported as 10.55 ± 0.69 ^A, B, C, D; the “Yellowness (b*)” value was 7.10 ± 0.49 ^A, B. The Storage loss in experiment [3] (MAP (80% O2 + 20% CO2)) is listed as 9.34 ± 0.83 ^A g. In experiment [3] (Vacuum), the Storage loss was 4.56 ± 0.89 ^B g. In experiment [4] (setting [9]), the “Heart Rate” value came out at 110.11 bpm, the “Q-T Interval” value worked out at 242.31 ms and the Respiration is reported as 23.53 breaths/min. In experiment [4] (post versus pre, P < 0.01), the “Difference in Q-T Interval: INCREASE by” value worked out at 8.5% P < 0.01. In addition, in experiment [4] (post versus pre, ns), the “Difference in Heart Rate: DECREASE by” value is listed as 9% (ns) and the “Difference in Respiration: DECREASE by” value is recorded as 12% (ns). In addition, in experiment [4] (setting [10]), the “Heart Rate” value worked out at 121.17 bpm, the “Q-T Interval” value amounted to 223.21 ms and the Respiration is recorded as 26.83 breaths/min. In addition, the Cooking loss in experiment [5] (MAP (80% O2 + 20% CO2)) is reported as 15.82 ± 1.86 ^A g. Moreover, the Cooking loss in experiment [5] (Vacuum) is given as 21.52 ± 1.86 ^A g.

For the compound `CSCCC(O)C(=O)O` (racemic) [HMTBA, 2-hydroxy-4-(methylthio) butanoic acid], the pH stood at 5.40 in experiment [1] (Laboratory, 2 days post mortem) and 6.20 in experiment [1] (setting [6]). Moreover, the Temperature in experiment [1] (setting [6]) was 39 °C. Besides, the “Light reflection (L*)” value in experiment [2] (Initial (2 days post mortem)) is 56.89 ± 1.25 ^A, B. Also, the “Redness (a*)” value in experiment [2] (Initial (2 days post mortem)) is on record as 7.58 ± 0.58 ^B, D; in experiment [2] (setting [8]) it was 7.43 ± 0.59 ^B, D. Also, the entries for the “Yellowness (b*)” value in experiment [2] (Initial (2 days post mortem)) and in experiment [2] (setting [8]) were 3.71 ± 0.46 ^C and 6.35 ± 0.49 ^B, respectively. Besides, the Saturation index was 8.46 ± 0.67 ^C, D, E in experiment [2] (setting [7]) and 9.81 ± 0.69 ^B, C, D, E in experiment [2] (setting [8]). Besides, the Storage loss in experiment [3] (MAP (80% O2 + 20% CO2)) was 6.37 ± 0.83 ^A, B g; in experiment [3] (Vacuum) it was 4.63 ± 0.83 ^B g. Moreover, the Cooking loss in experiment [5] (MAP (80% O2 + 20% CO2)) was 18.49 ± 1.73 ^A g; in experiment [5] (Vacuum), 21.35 ± 1.73 ^A g.
